From PMC7529893, “Structural basis for substrate recognition and chemical inhibition of oncogenic MAGE ubiquitin ligases” (Nature Communications, 2020)

Target: T1, MAGE-A11:PCF11 interaction (GST-MAGE-A11 and FAM-PCF11_4) (Homo sapiens, UniProt P43364)
T1 construct: GST-MAGE-A11 MHD (human MAGE-A11 MHD amino acid 218-429); made in house; host or cells: E. coli BL21(DE3)
T1 sequence (P43364 218-429): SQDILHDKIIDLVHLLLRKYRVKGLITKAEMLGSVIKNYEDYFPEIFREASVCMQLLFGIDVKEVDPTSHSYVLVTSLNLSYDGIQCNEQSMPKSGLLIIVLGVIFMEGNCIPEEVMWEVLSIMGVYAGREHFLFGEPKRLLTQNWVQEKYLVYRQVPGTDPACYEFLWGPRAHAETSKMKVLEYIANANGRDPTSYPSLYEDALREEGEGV
Assay: TR-FRET primary / single point screen at 15 µM
Format: binding
Procedure, shortened: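 TR-FRET 520/490 nm emission ratio was read after 90 min at room temperature. Wells held 5 nM GST-MAGE-A11, 5 nM Tb-anti-GST, 200 nM FAM-PCF11_4 and 15 µM compound in Tris pH 7.5 buffer with MgCl2, BSA and DTT. %Inhibition was scaled to DMSO and minus-MAGE-A11 controls.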

[1] = single point TR-FRET screening of 797 quinoline compounds against MAGE-A11:PCF11
[2] = single point TR-FRET screening of quinoline compounds against MAGE-A11:PCF11, 15 µM

## Fc1ccc(CN2CCC(Nc3ccnc4cc(Cl)ccc34)CC2)cc1F [SJ000523089]
[1]
  percent inhibition (TR-FRET): -1.958

## CCOC(=O)c1cnc2ccc(OCC)cc2c1NCCN1CCOCC1 [SJ000027289]
[1]
  percent inhibition (TR-FRET): 5.291

## CCOc1ccc2ncc(S(=O)(=O)c3ccccc3)c(N3CCN(C)CC3)c2c1 [SJ000083948]
[1]
  percent inhibition (TR-FRET): -3.938

## O=[N+]([O-])c1ccccc1-c1ccc(CNCCCNc2ccnc3cc(Cl)ccc23)o1 [SJ000523068]
[2]
  percent inhibition (TR-FRET): 21.6545

## CCCN(CCCCNc1ccnc2cc(Cl)ccc12)Cc1c(F)cccc1OC [SJ000311203]
[1]
  percent inhibition (TR-FRET): 6.844

## CCCN(CCCNc1ccnc2cc(Cl)ccc12)CCCSC [SJ000357576]
[2]
  percent inhibition (TR-FRET): 7.824

## CCCN(CCCCNc1ccnc2cc(Cl)ccc12)CCCSC [SJ000311197]
[1]
  percent inhibition (TR-FRET): 3.903

## Fc1ccc(Cc2ccc3c(NCCCNCc4ccco4)ccnc3c2)c(Cl)c1 [SJ000311322]
[2]
  percent inhibition (TR-FRET): 24.7681

## CCCN(CCCNc1ccnc2cc(C(F)(F)F)ccc12)Cc1ccc(F)c(F)c1 [SJ000361272]
[2]
  percent inhibition (TR-FRET): 13.8395

## FC(F)(F)c1cccc(CN(CCCCNc2ccnc3cc(Cl)ccc23)Cc2ccccc2)c1 [SJ000520455]
[1]
  percent inhibition (TR-FRET): 26.3784

## CCC(C)CNCCCNc1ccnc2cc(Cl)ccc12 (stereo not drawn) [SJ000361104]
[2]
  percent inhibition (TR-FRET): 9.822

## CCCN(CCCNc1c2ccc(Cl)cc2nc2ccc(OC)cc12)Cc1ccc([N+](=O)[O-])cc1 [SJ000520949]
[2]
  percent inhibition (TR-FRET): -9.039

## CCCN(CCCNc1ccnc2cc(C(F)(F)F)ccc12)Cc1c[nH]c2ccccc12 [SJ000520468]
[2]
  percent inhibition (TR-FRET): 16.1561

## CC(C)CCc1ccc2c(NCCCNCc3ccco3)ccnc2c1 [SJ000311246]
[2]
  percent inhibition (TR-FRET): 13.0054

## CCCN(CCCNc1ccnc2cc(C(F)(F)F)ccc12)Cc1ccoc1 [SJ000361267]
[2]
  percent inhibition (TR-FRET): 28.5489

## Cc1ccc(CNCCCNc2ccnc3cc(Cl)ccc23)s1 [SJ000311190]
[2]
  percent inhibition (TR-FRET): 10.8349

## Clc1ccc2c(NCCCNCc3ccsc3)ccnc2c1 [SJ000523052]
[2]
  percent inhibition (TR-FRET): 15.2459

## CCCN(CCCNc1c2ccc(Cl)cc2nc2ccc(OC)cc12)CC(C)CC (stereo not drawn) [SJ000520959]
[1]
  percent inhibition (TR-FRET): -264.817

## CCN1CCN(c2c(S(=O)(=O)c3ccc(C)c(C)c3)cnc3ccc(OC)cc23)CC1 [SJ000247335]
[1]
  percent inhibition (TR-FRET): -4.579

## CCOC(=O)c1cnc2c(C)c(C)ccc2c1NCCN(C)C [SJ000134078]
[1]
  percent inhibition (TR-FRET): 8.5376

## COc1ccc2nc3cc(Cl)ccc3c(NCCCNCc3ccc4c(c3)OCO4)c2c1 [SJ000361085]
[1]
  percent inhibition (TR-FRET): -363.307

## Clc1ccc2c(NCCCN(Cc3ccccc3)Cc3ccc4c(c3)OCO4)ccnc2c1 [SJ000522719]
[2]
  percent inhibition (TR-FRET): 9.001

## CCN1CCN(c2c(S(=O)(=O)c3ccccc3)cnc3ccc(OC)cc23)CC1 [SJ000083958]
[1]
  percent inhibition (TR-FRET): 0.1242

## Clc1ccc2c(NCCCNCc3ccco3)ccnc2c1 [SJ000000502]
[2]
  percent inhibition (TR-FRET): 6.349

## CCCN(CCCNc1c2ccc(Cl)cc2nc2ccc(OC)cc12)Cc1cc(F)cc(F)c1O [SJ000522982]
[2]
  percent inhibition (TR-FRET): 2.045

## CCCN(CCCNc1ccnc2cc(C(F)(F)F)ccc12)Cc1cc(F)cc(F)c1O [SJ000521012]
[2]
  percent inhibition (TR-FRET): 14.997

## CCc1ccc(CNCCCNc2c3ccc(Cl)cc3nc3ccc(OC)cc23)cc1 [SJ000521005]
[1]
  percent inhibition (TR-FRET): -390.355

## CN(C)CCNc1c2c(nc3ccccc13)CCC2 [SJ000013622]
[1]
  percent inhibition (TR-FRET): 3.285

## Clc1ccc2c(NC3CCN(Cc4cccc5ccccc45)CC3)ccnc2c1 [SJ000523099]
[1]
  percent inhibition (TR-FRET): -6.179

## CCCCN(CCC)CCCNc1ccnc2cc(Cl)ccc12 [SJ000357571]
[2]
  percent inhibition (TR-FRET): 12.7774

## CN1CCN(c2c(S(=O)(=O)c3ccccc3)cnc3ccc(F)cc23)CC1 [SJ000083949]
[1]
  percent inhibition (TR-FRET): -11.5001

## CCOC(=O)c1cnc2c(C)cc(C)cc2c1NCCN1CCOCC1 [SJ000172983]
[1]
  percent inhibition (TR-FRET): 8.869

## COc1ccc2nc3cc(Cl)ccc3c(NCCCNCC3CCOC3)c2c1 (stereo not drawn) [SJ000521003]
[1]
  percent inhibition (TR-FRET): -442.307

## CCCN(CCCNc1ccnc2cc(Cl)ccc12)Cc1nc(C)cs1 [SJ000522997]
[2]
  percent inhibition (TR-FRET): 3.413

## CCCN(CCCNc1c2ccc(Cl)cc2nc2ccc(OC)cc12)Cc1cccc(OC)c1 [SJ000520961]
[1]
  percent inhibition (TR-FRET): -244.583

## COc1ccc2nc3cc(Cl)ccc3c(NCCCNCc3ccc[nH]3)c2c1 [SJ000361084]
[2]
  percent inhibition (TR-FRET): 0.9854

## CCCN(CCCNc1ccnc2cc(C(F)(F)F)ccc12)Cc1ccc(OC(F)(F)F)cc1 [SJ000520474]
[2]
  percent inhibition (TR-FRET): 17.3802

## COc1ccc2nc3cc(Cl)ccc3c(NCCCNCc3ccco3)c2c1 [SJ000523032]
[1]
  percent inhibition (TR-FRET): -165.325

## FC(F)(F)Oc1ccccc1CN(CCCCNc1ccnc2cc(Cl)ccc12)Cc1ccccc1 [SJ000520459]
[1]
  percent inhibition (TR-FRET): 30.8594

## O=C(O)c1ccccc1CN(CCCNc1ccnc2cc(Cl)ccc12)Cc1ccccc1 [SJ000361180]
[2]
  percent inhibition (TR-FRET): 9.598

## CCCN(CCCNc1c2ccc(Cl)cc2nc2ccc(OC)cc12)Cc1cc(C(F)(F)F)ccc1OC [SJ000522985]
[2]
  percent inhibition (TR-FRET): -46.0179

## COc1ccc(CN2CCC(Nc3ccnc4cc(Cl)ccc34)CC2)cc1OC [SJ000523103]
[1]
  percent inhibition (TR-FRET): 11.7451

## CCOc1ccc2ncc(C(=O)c3ccc(OC)cc3)c(N3CCN(CC)CC3)c2c1 [SJ000247243]
[1]
  percent inhibition (TR-FRET): -9.084

## COc1ccc2nc3cc(Cl)ccc3c(NCCCNCc3ccc(Cl)cc3Cl)c2c1 [SJ000522958]
[1]
  percent inhibition (TR-FRET): -97.8295

## Clc1ccc2c(NCCCN(CCOCc3ccccc3)Cc3ccccc3)ccnc2c1 [SJ000357583]
[2]
  percent inhibition (TR-FRET): 13.2411

## Clc1ccc2c(NCCCN(Cc3ccccc3)Cc3ccc4ccccc4c3)ccnc2c1 [SJ000361182]
[2]
  percent inhibition (TR-FRET): 22.052

## CCCN(CCCNc1c2ccc(Cl)cc2nc2ccc(OC)cc12)CCc1ccccc1 [SJ000520962]
[1]
  percent inhibition (TR-FRET): -591.727

## CCOC(=O)c1cnc2c(C)cccc2c1NCCCN1CCOCC1 [SJ000279636]
[2]
  percent inhibition (TR-FRET): 3.353

## CCCN(CCCNc1ccnc2cc(Cl)ccc12)Cc1nccs1 [SJ000357454]
[2]
  percent inhibition (TR-FRET): 11.9552

## CCCN(CCCNc1ccnc2cc(Cl)ccc12)Cc1cc2ccccc2nc1Cl [SJ000522760]
[2]
  percent inhibition (TR-FRET): 12.7954

## CCCN(CCCNc1ccnc2cc(C(F)(F)F)ccc12)Cc1cccc(C(F)(F)F)c1 [SJ000520471]
[2]
  percent inhibition (TR-FRET): 13.0224

## CCCN(CCCNc1c2ccc(Cl)cc2nc2ccc(OC)cc12)Cc1ccncc1 [SJ000520918]
[2]
  percent inhibition (TR-FRET): -1.797

## CCCN(CCCNc1ccnc2cc(Cl)ccc12)CC1CCCCC1 [SJ000522751]
[2]
  percent inhibition (TR-FRET): 15.626

## COc1ccc2nc3cc(Cl)ccc3c(NCCCNCc3cc4ccccc4o3)c2c1 [SJ000520997]
[1]
  percent inhibition (TR-FRET): -146.701

## Fc1cccc(C(F)(F)F)c1CN(CCCNc1ccnc2cc(Cl)ccc12)Cc1ccccc1 [SJ000520467]
[2]
  percent inhibition (TR-FRET): 22.0104

## Clc1cccc(Cl)c1Cc1ccc2c(NCCCNCc3ccco3)ccnc2c1 [SJ000311314]
[2]
  percent inhibition (TR-FRET): 32.3998

## COc1ccc2nc3cc(Cl)ccc3c(NCCCNCCC(C)(C)C)c2c1 [SJ000520994]
[1]
  percent inhibition (TR-FRET): -456.31

## CCCCN(CCC)CCCNc1c2ccc(Cl)cc2nc2ccc(OC)cc12 [SJ000522971]
[1]
  percent inhibition (TR-FRET): -286.942

## COc1ccc2ncc(S(=O)(=O)c3ccc(C)cc3)c(N3CCN(Cc4ccccc4)CC3)c2c1 [SJ000117085]
[1]
  percent inhibition (TR-FRET): -82.2209

## CCCN(CCCNc1c2ccc(Cl)cc2nc2ccc(OC)cc12)Cc1cccs1 [SJ000520920]
[1]
  percent inhibition (TR-FRET): -164.134

## O=[N+]([O-])c1ccc(CNCCCNc2ccnc3cc(Cl)ccc23)s1 [SJ000520912]
[2]
  percent inhibition (TR-FRET): 6.284

## FC(F)(F)c1ccc2c(NCCCNCc3nc4ccccc4s3)ccnc2c1 [SJ000521062]
[2]
  percent inhibition (TR-FRET): 14.4336

## c1coc(CNCCCNc2ccnc3cc(-c4cccc5ccccc45)ccc23)c1 [SJ000311274]
[2]
  percent inhibition (TR-FRET): 41.5719

## CCCN(CCCNc1c2ccc(Cl)cc2nc2ccc(OC)cc12)CCOCc1ccccc1 [SJ000522981]
[1]
  percent inhibition (TR-FRET): -212.396

## CCCN(CCCNc1c2ccc(Cl)cc2nc2ccc(OC)cc12)Cc1ccccc1F [SJ000520944]
[1]
  percent inhibition (TR-FRET): -118.554

## CCCCCCN(CCC)CCCNc1c2ccc(Cl)cc2nc2ccc(OC)cc12 [SJ000520963]
[1]
  percent inhibition (TR-FRET): -153.702
